Tests used:
Type in all cases: in vivo
diseased maize = assay: Field trial, yield of diseased maize
Method: (§1) In this example, diseased maize having Southern Rust of Maize (Puccinia polysora) was treated with BAG8, Azoxystrobin, and Boscalid. Testing was performed to assess the fungicidal effect of the compounds on Southern Rust of Maize (Puccinia polysora) and to assess the growth enhancing effect of the compounds on the diseased maize.
(§2) Maize was planted into 6×30 ft plots and replicated four times in a randomized complete block design. Three treatments and an untreated control were tested for efficacy against Southern Rust of Maize (Puccinia polysora) and assessed for yield at the conclusion of the growing season. Foliar applications of the three treatments, BAG8 at 0.25 pounds of active ingredient per acre, azoxystrobin at 0.25 pounds of active ingredient per acre, and boscalid at 0.24 pounds of active ingredient per acre, were applied to the plots at growth stage V8. Best practices were used consistently across the test plots with regard to field conditions such as fertilization, insect control, weed control, and irrigation. Disease assessments were taken in each plot 28 days after the foliar fungicide application. At maturity, each plot was harvested using standard harvesting equipment. After shelling, the kernels were weighed at 11% moisture and yield calculations extrapolated to bushels per acre.
(§3) Analysis of variance (ANOVA) was used to examine disease severity data and means were separated using Fisher's least significant difference (LSD) method at α=0.05. […]

broccoli = assay: Soil drench growth enhancing effect, broccoli; conditions: for Average Dry Matter Weight / Average Root Length / Average Shoot Height: 4 treatments every 14 days, 14 days after final treatment
Method: (§4) Boron-containing compounds/compositions were applied directly to the soil, and the growth of plants was measured. An exemplary embodiment of a benzoxaborole compound includes 5-chlorobenzo[c][1,2]oxaborol-1(3H)-ol, which may be referred to herein as BAG8.
(§5) Eight 2-gallon pots were filled with steamed soil for each of the five treatments listed below:
(§6) 3-4 seeds were planted into each pot at a depth of 1 inch and covered. All seedlings were subjected to 16 hours of daylight at ˜800 μmol/m^2/second (light intensity) provided by cool-white fluorescent lamps. Daytime temperatures were ˜25° C. and were dropped to ˜18° C. at night.
(§7) Solutions were prepared by first dissolving the appropriate amount of benzoxaborole in ethanol or acetone then adding to distilled water. 100 mL of treatment was applied to each pot in a circular motion to evenly coat the surface of the soil. These treatments were applied every 14 days for a total of 4 treatments, including the at-planting treatment. Each pot was monitored, and 50 mL of distilled water was added to each pot when soil was dry.
(§8) Germination and shoot height data were recorded every seven days. 14 days after the final treatment application, plants were carefully removed from each pot and final shoot length, root length, and dry matter weight were recorded.
(§9) This experiment was conducted on red table beet, broccoli, snow pea, turnips, and spring wheat.

spring wheat = assay: Soil drench growth enhancing effect, spring wheat; conditions: for Average Dry Matter Weight / Average Root Length / Average Shoot Height: 4 treatments every 14 days, 14 days after final treatment
Method: as §4, §5, §6, §7, §8, §9

wheat seedlings = assay: Soil drench treatment on wheat seedlings (perlite); conditions: for Mean Root Length: 10 days after germination, measured 10 days following drench
Method: (§10) Sample soil drench treatments were prepared by dissolving […], 3.19 mg, or 3.99 mg of BAG8 in 67.5 mL of acetone in separate vials. Each vial was then added to 202.5 mL of water and shaken vigorously to produce a suitable sample for soil drench treatment at rates of 75 g/A, 100 g/A, and 125 g/A, respectively.
Wheat seeds were sown into pots filled with perlite growth medium and allowed to germinate under normal glass house conditions. 10 days after germination the pots were drenched with the respective BAG8 solutions. 10 days following the drench, root and stem lengths were measured. Analysis of variance was used to examine root length data and means were separated using Fisher's least significant difference at α=0.05.

snow pea = assay: Soil drench growth enhancing effect, snow pea; conditions: for growth effect compared to untreated control: soil drench; for Average Dry Matter Weight / Average Root Length / Average Shoot Height: 4 treatments every 14 days, 14 days after final treatment
Method: as §4, §5, §6, §7, §8, §9

[1] = system: Southern Rust of Maize (Puccinia polysora); assay: Field trial, Southern Rust of Maize severity on maize
Method: as §1, §2, §3

canola seedlings = assay: Soil drench treatment on canola seedlings (perlite); conditions: for Mean Stem Length: 10 days after germination, measured 10 days following drench
Method: as §10
Canola seeds were sown into pots filled with perlite growth medium and allowed to germinate under normal glass house conditions. 10 days after germination the pots were drenched with the respective BAG8 solutions. 10 days following the drench, stem lengths were measured. Analysis of variance was used to examine stem length data and means were separated using Fisher's least significant difference at α=0.05.

turnips = assay: Soil drench growth enhancing effect, turnip; conditions: for Average Dry Matter Weight / Average Root Length / Average Shoot Height: 4 treatments every 14 days, 14 days after final treatment
Method: as §4, §5, §6, §7, §8, §9

red table beet = assay: Soil drench growth enhancing effect, red table beet; conditions: for Average Dry Matter Weight / Average Root Length / Average Shoot Height: 4 treatments every 14 days, 14 days after final treatment
Method: as §4, §5, §6, §7, §8, §9

[2] = all rates (0.12-0.60 lb/A), soil drench
[3] = treatment B, 0.12 lb/A soil drench
[4] = treatment C, 0.25 lb/A soil drench
[5] = treatment D, 0.35 lb/A soil drench
[6] = treatment E, 0.60 lb/A soil drench

Compound: OB1OCc2cc(Cl)ccc21 [BAG8, 5-chlorobenzo[c][1,2]oxaborol-1(3H)-ol]
- increased yield relative to untreated control (diseased maize; 0.25 lb ai/A foliar): 194%
- Yield (diseased maize; 0.25 lb ai/A foliar at V8, harvest at maturity, 11% moisture): 146.2 a bu/A
- root length and dry matter weight compared with untreated control (broccoli; [2]): longer roots and greater dry matter weight than the untreated control
- treatment effect on average shoot height (broccoli; all rates, soil drench): no treatment effect was present
- Average Dry Matter Weight (broccoli; [3]): 10.70 mg
- Average Root Length (broccoli; [3]): 5.60 cm
- Average Shoot Height (broccoli; [3]): 4.50 cm
- Average Dry Matter Weight (broccoli; [4]): 11.10 mg
- Average Root Length (broccoli; [4]): 5.20 cm
- Average Shoot Height (broccoli; [4]): 4.40 cm
- Average Dry Matter Weight (broccoli; [5]): 11.30 mg
- Average Root Length (broccoli; [5]): 5.30 cm
- Average Shoot Height (broccoli; [5]): 4.90 cm
- Average Dry Matter Weight (broccoli; [6]): 13.00 mg
- Average Root Length (broccoli; [6]): 6.50 cm
- Average Shoot Height (broccoli; [6]): 4.50 cm
- growth effect compared with untreated control (spring wheat; [2]): longer shoots, longer roots, and greater dry matter weight than the untreated control
- increase in final dry matter weight of wheat (spring wheat; applied at 0.12 and 0.25 pounds per acre, soil drench): ~250%
- Average Dry Matter Weight (spring wheat; [3]): 1204.30 mg
- Average Root Length (spring wheat; [3]): 21.30 cm
- Average Shoot Height (spring wheat; [3]): 39.50 cm
- Average Dry Matter Weight (spring wheat; [4]): 1123.60 mg
- Average Root Length (spring wheat; [4]): 24.40 cm
- Average Shoot Height (spring wheat; [4]): 39.70 cm
- Average Dry Matter Weight (spring wheat; [5]): 640.20 mg
- Average Root Length (spring wheat; [5]): 20.40 cm
- Average Shoot Height (spring wheat; [5]): 37.50 cm
- Average Dry Matter Weight (spring wheat; [6]): 649.70 mg
- Average Root Length (spring wheat; [6]): 22.00 cm
- Average Shoot Height (spring wheat; [6]): 39.90 cm
- increased root length relative to untreated control (wheat seedlings; all tested application rates, soil drench, wheat seedlings): 27-45%
- Mean Root Length (wheat seedlings; soil drench 75 g ai/A): 580.4 mm
- Mean Root Length (wheat seedlings; soil drench 100 g ai/A): 524.2 mm
- Mean Root Length (wheat seedlings; soil drench 125 g ai/A): 507.0 mm
- growth effect compared to untreated control (snow pea; 0.25 pounds per acre): increased the shoot height, root length, and dry matter weight
- growth effect compared to untreated control (snow pea; rates other than 0.25 pounds per acre): does not increase average shoot height, average root length, or average dry matter weight
- Average Dry Matter Weight (snow pea; [3]): 102.70 mg
- Average Root Length (snow pea; [3]): 7.10 cm
- Average Shoot Height (snow pea; [3]): 6.90 cm
- Average Dry Matter Weight (snow pea; [4]): 280.10 mg
- Average Root Length (snow pea; [4]): 12.10 cm
- Average Shoot Height (snow pea; [4]): 13.10 cm
- Average Dry Matter Weight (snow pea; [5]): 185.70 mg
- Average Root Length (snow pea; [5]): 8.00 cm
- Average Shoot Height (snow pea; [5]): 9.40 cm
- Average Dry Matter Weight (snow pea; [6]): 130.90 mg
- Average Root Length (snow pea; [6]): 7.90 cm
- Average Shoot Height (snow pea; [6]): 6.50 cm
- reduced disease relative to the untreated control ([1]; 0.25 lb ai/A foliar): 70%
- Disease Severity (% Leaf Coverage) ([1]; 0.25 lb ai/A foliar at V8, 28 days after application): 19.6 b % Leaf Coverage
- increased root length (canola seedlings; all tested application rates, soil drench, canola seedlings): 19-65%
- Mean Stem Length (canola seedlings; soil drench 75 g ai/A): 39.2 mm
- Mean Stem Length (canola seedlings; soil drench 100 g ai/A): 33.8 mm
- Mean Stem Length (canola seedlings; soil drench 125 g ai/A): 47.1 mm
- growth effect compared with untreated control (turnips; [2]): longer shoots, longer roots, and greater dry matter weight than the untreated control
- Average Dry Matter Weight (turnips; [3]): 6.40 mg
- Average Root Length (turnips; [3]): 3.67 cm
- Average Shoot Height (turnips; [3]): 1.81 cm
- Average Dry Matter Weight (turnips; [4]): 7.62 mg
- Average Root Length (turnips; [4]): 4.96 cm
- Average Shoot Height (turnips; [4]): 2.09 cm
- Average Dry Matter Weight (turnips; [5]): 7.82 mg
- Average Root Length (turnips; [5]): 4.02 cm
- Average Shoot Height (turnips; [5]): 2.18 cm
- Average Dry Matter Weight (turnips; [6]): 6.36 mg
- Average Root Length (turnips; [6]): 3.15 cm
- Average Shoot Height (turnips; [6]): 2.13 cm
- growth effect compared with untreated control (red table beet; all application rates (0.12-0.60 lb/A), soil drench): longer shoots, longer roots, and greater dry matter weight than the untreated control
- Average Dry Matter Weight (red table beet; [3]): 10.70 mg
- Average Root Length (red table beet; [3]): 4.50 cm
- Average Shoot Height (red table beet; [3]): 3.33 cm
- Average Dry Matter Weight (red table beet; [4]): 11.10 mg
- Average Root Length (red table beet; [4]): 5.98 cm
- Average Shoot Height (red table beet; [4]): 4.24 cm
- Average Dry Matter Weight (red table beet; [5]): 11.30 mg
- Average Root Length (red table beet; [5]): 5.56 cm
- Average Shoot Height (red table beet; [5]): 4.09 cm
- Average Dry Matter Weight (red table beet; [6]): 13.00 mg
- Average Root Length (red table beet; [6]): 5.15 cm
- Average Shoot Height (red table beet; [6]): 5.01 cm

From patent US20210030005A1, “BENZOXABOROLE COMPOSITIONS HAVING A GROWTH ENHANCING EFFECT” (BORAGEN, INC., priority 2018, published 2021)
